According to ChEMBL document CHEMBL5653631, “A Potent and Selective ULK1 Inhibitor Suppresses Autophagy and Sensitizes Cancer Cells to Nutrient Stress” (iScience, 2018):
Each block holds one compound with its values, some of them ahead of it.

How the values were obtained:
[1] = target: Serine/threonine-protein kinase SIK3 (Homo sapiens) (UniProt Q9Y2K2); experiment: Inhibition of human recombinant QSK at 500 nM related to control ULK1
[2] = target: T1, Serine/threonine-protein kinase ULK2 (Homo sapiens) (UniProt Q8IYT8); experiment: Inhibition of human recombinant ULK2 at 500 nM in presence of ATP by radiometric assay relative to control
T1 sequence (whole entry): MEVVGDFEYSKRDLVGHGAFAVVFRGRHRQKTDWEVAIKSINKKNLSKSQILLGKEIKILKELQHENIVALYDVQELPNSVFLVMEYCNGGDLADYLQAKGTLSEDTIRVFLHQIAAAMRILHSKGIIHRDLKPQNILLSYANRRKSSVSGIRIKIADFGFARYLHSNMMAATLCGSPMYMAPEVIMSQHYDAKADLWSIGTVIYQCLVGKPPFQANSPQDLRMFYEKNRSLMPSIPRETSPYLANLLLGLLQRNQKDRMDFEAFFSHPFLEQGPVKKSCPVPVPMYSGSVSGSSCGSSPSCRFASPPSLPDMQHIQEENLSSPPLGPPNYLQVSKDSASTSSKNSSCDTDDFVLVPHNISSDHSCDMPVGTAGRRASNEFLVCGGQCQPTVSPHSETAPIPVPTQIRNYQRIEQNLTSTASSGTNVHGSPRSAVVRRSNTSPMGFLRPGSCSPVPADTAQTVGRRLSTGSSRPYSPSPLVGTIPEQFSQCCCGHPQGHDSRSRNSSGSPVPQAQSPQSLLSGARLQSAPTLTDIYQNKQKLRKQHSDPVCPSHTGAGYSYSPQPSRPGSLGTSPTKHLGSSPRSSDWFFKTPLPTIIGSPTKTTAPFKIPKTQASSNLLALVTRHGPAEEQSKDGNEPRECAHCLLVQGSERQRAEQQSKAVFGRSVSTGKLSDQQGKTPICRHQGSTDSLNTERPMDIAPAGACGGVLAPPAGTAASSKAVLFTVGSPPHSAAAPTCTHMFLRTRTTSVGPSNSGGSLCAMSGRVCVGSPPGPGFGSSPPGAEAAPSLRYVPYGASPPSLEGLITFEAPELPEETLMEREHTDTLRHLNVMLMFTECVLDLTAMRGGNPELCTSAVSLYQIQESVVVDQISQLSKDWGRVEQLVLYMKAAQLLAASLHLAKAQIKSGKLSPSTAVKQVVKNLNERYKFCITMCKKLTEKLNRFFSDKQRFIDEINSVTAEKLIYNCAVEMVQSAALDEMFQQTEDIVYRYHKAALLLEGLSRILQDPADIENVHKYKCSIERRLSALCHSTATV

[3] = target: Protein kinase C gamma type (Homo sapiens) (UniProt P05129); experiment: Inhibition of human recombinant PKCg at 15 nM related to control ULK1
[4] = target: Calcium/calmodulin-dependent protein kinase kinase 2 (Homo sapiens) (UniProt Q96RR4); experiment: Inhibition of human recombinant CaMKK2 at 15 nM in presence of ATP by radiometric assay relative to control
[5] = target: Serine/threonine-protein kinase PLK1 (Homo sapiens) (UniProt P53350); experiment: Inhibition of human recombinant PLK1 at 15 nM related to control ULK1
Serine/threonine-protein kinase PLK1 (Homo sapiens), sequence (P53350 whole entry): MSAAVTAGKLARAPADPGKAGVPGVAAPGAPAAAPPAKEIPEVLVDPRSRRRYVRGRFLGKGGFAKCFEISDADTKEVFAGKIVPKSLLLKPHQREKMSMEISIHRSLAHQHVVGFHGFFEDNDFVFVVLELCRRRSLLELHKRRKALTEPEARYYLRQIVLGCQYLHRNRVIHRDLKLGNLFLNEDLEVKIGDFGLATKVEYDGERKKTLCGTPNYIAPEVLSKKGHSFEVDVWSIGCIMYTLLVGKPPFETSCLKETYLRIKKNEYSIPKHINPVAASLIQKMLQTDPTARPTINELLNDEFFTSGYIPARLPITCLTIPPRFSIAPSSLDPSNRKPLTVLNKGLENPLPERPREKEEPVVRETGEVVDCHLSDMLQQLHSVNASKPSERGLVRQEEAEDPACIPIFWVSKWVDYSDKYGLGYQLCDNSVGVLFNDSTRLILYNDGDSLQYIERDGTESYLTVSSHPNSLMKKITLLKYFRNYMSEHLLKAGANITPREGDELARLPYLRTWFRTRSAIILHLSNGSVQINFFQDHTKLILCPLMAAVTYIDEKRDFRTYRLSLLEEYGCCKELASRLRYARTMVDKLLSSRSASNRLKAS

[6] = target: Cyclin-dependent kinase 18 (Homo sapiens) (UniProt Q07002); experiment: Inhibition of human recombinant PCTAIRE3 at 15 nM related to control ULK1
Cyclin-dependent kinase 18 (Homo sapiens), sequence (Q07002 whole entry): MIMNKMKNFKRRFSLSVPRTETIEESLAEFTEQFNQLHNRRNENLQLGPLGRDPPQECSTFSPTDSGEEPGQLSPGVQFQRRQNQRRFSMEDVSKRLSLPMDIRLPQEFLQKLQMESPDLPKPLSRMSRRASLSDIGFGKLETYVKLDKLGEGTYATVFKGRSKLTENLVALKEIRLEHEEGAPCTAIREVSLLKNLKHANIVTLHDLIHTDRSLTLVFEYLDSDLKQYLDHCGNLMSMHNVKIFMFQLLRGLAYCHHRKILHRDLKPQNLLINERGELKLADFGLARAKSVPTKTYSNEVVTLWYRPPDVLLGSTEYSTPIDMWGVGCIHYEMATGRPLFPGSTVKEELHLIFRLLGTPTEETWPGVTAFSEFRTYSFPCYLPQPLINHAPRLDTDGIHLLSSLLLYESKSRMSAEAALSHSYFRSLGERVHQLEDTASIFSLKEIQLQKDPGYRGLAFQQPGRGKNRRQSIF

[7] = target: Cyclin-dependent kinase 2 (Homo sapiens) (UniProt P24941); experiment: Inhibition of human recombinant CDK2 at 40 nM in presence of ATP by radiometric assay relative to control
[8] = target: Serine/threonine-protein kinase SBK1 (Homo sapiens) (UniProt Q52WX2); experiment: Inhibition of human recombinant SBK1 at 40 nM in presence of ATP by radiometric assay relative to control
Serine/threonine-protein kinase SBK1 (Homo sapiens), sequence (Q52WX2 whole entry): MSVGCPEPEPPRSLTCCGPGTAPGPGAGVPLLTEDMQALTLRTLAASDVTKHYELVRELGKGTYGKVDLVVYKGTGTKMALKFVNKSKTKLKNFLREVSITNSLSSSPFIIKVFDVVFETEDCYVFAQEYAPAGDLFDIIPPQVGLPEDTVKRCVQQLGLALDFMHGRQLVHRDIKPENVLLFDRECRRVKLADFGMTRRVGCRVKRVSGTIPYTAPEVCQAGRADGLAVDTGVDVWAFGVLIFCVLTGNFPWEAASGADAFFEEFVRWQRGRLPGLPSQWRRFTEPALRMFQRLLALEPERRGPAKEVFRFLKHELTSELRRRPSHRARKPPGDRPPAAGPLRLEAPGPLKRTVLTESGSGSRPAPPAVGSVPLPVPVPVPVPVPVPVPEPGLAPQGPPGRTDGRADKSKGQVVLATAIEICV

[9] = target: T2, Dual specificity tyrosine-phosphorylation-regulated kinase 2 (Homo sapiens) (UniProt Q92630); experiment: Inhibition of human recombinant DYRK2 at 40 nM in presence of ATP by radiometric assay relative to control
T2 sequence (whole entry): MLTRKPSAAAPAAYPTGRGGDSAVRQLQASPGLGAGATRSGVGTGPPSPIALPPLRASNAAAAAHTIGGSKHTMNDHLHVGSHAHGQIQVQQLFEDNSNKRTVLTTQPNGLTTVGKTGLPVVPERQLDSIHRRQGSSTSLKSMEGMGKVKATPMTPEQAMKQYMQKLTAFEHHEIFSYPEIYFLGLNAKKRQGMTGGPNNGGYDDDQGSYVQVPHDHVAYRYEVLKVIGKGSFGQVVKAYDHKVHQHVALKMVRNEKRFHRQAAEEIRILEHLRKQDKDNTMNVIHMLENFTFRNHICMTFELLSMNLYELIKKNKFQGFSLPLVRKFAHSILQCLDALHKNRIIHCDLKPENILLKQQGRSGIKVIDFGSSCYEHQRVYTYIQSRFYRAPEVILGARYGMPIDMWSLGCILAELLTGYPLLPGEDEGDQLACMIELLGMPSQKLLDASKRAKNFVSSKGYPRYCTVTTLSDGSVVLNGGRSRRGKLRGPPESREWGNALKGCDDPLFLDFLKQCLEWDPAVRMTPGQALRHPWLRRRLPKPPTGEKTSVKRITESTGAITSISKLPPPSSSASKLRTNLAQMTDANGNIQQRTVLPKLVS

[10] = target: Leucine-rich repeat serine/threonine-protein kinase 2 (Homo sapiens) (UniProt Q5S007); experiment: Inhibition of human recombinant LRRK2 at 40 nM related to control ULK1
Leucine-rich repeat serine/threonine-protein kinase 2 (Homo sapiens), sequence (Q5S007 whole entry): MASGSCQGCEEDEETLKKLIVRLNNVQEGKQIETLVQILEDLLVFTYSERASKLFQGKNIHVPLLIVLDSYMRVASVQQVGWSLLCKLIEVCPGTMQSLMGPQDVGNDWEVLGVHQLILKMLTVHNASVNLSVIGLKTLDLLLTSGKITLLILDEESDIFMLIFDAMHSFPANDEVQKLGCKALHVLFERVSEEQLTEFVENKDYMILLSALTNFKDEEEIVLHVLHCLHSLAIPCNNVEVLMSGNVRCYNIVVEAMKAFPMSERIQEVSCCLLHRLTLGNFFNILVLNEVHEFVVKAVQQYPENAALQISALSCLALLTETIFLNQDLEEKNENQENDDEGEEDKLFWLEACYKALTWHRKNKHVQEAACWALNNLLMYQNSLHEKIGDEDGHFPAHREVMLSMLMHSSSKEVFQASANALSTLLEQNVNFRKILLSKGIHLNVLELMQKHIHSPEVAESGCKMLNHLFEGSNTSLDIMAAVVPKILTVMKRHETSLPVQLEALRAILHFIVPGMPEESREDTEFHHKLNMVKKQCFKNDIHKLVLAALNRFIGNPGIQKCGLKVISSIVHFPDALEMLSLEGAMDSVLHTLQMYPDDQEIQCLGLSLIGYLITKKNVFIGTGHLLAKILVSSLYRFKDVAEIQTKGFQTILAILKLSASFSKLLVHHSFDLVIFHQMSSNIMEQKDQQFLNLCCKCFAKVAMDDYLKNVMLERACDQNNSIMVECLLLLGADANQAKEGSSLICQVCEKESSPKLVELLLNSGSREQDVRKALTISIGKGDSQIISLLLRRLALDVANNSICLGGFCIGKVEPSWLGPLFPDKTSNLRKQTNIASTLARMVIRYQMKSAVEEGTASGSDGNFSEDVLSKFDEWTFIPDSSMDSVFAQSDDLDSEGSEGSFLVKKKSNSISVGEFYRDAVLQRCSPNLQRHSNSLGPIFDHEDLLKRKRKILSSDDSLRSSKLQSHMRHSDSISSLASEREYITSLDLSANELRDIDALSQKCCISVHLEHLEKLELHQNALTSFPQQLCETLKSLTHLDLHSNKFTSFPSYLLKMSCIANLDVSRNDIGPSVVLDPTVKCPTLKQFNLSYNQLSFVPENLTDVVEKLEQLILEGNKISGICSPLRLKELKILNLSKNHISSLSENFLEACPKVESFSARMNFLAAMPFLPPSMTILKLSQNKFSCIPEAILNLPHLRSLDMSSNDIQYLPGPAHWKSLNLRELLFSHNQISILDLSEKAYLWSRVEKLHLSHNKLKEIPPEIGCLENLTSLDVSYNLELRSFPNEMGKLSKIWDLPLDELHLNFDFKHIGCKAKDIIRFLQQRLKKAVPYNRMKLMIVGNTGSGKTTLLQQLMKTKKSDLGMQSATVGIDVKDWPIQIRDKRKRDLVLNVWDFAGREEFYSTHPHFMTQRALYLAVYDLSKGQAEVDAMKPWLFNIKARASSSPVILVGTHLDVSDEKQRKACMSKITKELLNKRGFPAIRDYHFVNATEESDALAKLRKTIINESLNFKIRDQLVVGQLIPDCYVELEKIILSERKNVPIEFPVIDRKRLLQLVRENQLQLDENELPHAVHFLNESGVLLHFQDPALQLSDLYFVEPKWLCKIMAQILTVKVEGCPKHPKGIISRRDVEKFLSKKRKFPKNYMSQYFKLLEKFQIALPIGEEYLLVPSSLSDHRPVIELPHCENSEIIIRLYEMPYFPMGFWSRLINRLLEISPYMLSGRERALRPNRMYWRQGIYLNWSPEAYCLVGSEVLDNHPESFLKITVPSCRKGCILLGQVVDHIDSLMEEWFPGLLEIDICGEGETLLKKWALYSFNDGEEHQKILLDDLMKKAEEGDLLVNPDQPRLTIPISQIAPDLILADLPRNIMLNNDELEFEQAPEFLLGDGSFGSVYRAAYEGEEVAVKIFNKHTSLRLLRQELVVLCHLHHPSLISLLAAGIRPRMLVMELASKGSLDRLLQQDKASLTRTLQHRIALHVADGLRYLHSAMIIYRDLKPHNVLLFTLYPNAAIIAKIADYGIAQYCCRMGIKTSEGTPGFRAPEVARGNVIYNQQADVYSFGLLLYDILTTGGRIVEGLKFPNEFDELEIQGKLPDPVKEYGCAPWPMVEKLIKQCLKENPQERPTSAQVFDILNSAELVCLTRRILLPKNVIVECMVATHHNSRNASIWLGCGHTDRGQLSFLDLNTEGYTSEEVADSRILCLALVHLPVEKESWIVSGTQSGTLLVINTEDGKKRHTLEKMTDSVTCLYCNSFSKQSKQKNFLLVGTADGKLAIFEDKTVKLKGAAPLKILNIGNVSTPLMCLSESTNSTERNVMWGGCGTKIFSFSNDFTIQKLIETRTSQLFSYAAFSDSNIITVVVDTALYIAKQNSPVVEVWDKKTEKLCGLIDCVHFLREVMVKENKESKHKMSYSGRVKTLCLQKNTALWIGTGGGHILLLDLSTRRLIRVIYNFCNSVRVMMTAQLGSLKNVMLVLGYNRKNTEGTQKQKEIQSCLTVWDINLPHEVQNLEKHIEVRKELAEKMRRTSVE

- fold change (FC) [1]: 0.11
- inhibition [2]: 48%
Structure (SMILES): CNC(=O)c1ccccc1Oc1nc(Nc2cc(OC)c(OC)c(OC)c2)ncc1Br

- fold change (FC) [3]: 0
- inhibition [4]: 1%
- fold change (FC) [5]: 0.01
- fold change (FC) [6]: 0.76
Structure (SMILES): CC(C)[C@H](NC(=O)c1cc(-c2cnn3cc(-c4ccc(OCCN5CCCCC5)cc4)cnc23)cs1)C(F)(F)F

- inhibition [7]: 29%
- inhibition [8]: 0%
- inhibition [9]: 11%
- fold change (FC) [10]: 0.04
Structure (SMILES): O=C(N[C@@H](C1CC1)C(F)(F)F)c1cc(-c2cnn3cc(-c4ccc(F)cc4)cnc23)cs1
